Source: the METLIN SMRT retention time set (Domingo-Almenara et al. 2019)

Experiment: gradient 5% acetonitrile 3 min, to 50% in 2 min, to 85% in 15 min, held 3 min, 100 µL/min
Conditions: column: Zorbax Extend-C18 2.1 x 50 mm; eluents: water / acetonitrile, 0.1% formic acid
Method in brief: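 Pure standards were analyzed in mixtures of ~100 molecules using HPLC coupled to a quadrupole time-of-flight mass spectrometer, in both positive and negative ionization mode. Separation used a Zorbax Extend-C18 column (2.1 × 50 mm, 1.8 μm) at 100 μL/min, with water and acetonitrile each containing 0.1% formic acid. Dead and dwell volumes were 40 μL and 900 μL, and data were collected over 3 months. Retention time was read from computationally picked adduct peaks, each inspected manually.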

`CCc1nncn1C1CCN(S(=O)(=O)c2cccc(Cl)c2)CC1` gave an RP-LC retention time of 726 s.
For `CC(=O)N1CCC2(CC1)N(CC1CC1)C(=O)CS2=O` (stereo not given), the RP-LC retention time was 565 s.
`CN1CCC(OC2CCN(S(=O)(=O)c3ccccc3F)CC2)CC1` gave an RP-LC retention time of 620 s.
Work on `Cc1cccc(S(=O)(=O)N2CC(F)(F)C[C@H]2CN2CCc3ccccc3C2)c1` yielded an RP-LC retention time of 773 s.
`CC(C)n1c(N2CCN(C(=O)c3[nH]nc4c3CCc3ccccc3-4)CC2)cc(=O)n(C(C)C)c1=O` gave an RP-LC retention time of 872 s.
In the case of `Cc1ccccc1CNC(=O)Cn1cccc1-c1nnc(-c2ccccc2)o1`, the RP-LC retention time was 950 s.
In the case of `Cc1ccc(C)c(NC(=O)N2CCC(n3c(C)nc4cccnc43)CC2)c1`, the RP-LC retention time was 638 s.
For `O=C(NCc1ccc(F)cc1)c1cn2c(n1)COCC2`, the RP-LC retention time was 631 s.
`COc1ccc(Br)cc1S(=O)(=O)NCCCn1ccnc1` showed an RP-LC retention time of 568 s.
Compound `O=c1n(CCc2ccccc2)nc2c(S(=O)(=O)N3CCCCCC3)cccn12` has an RP-LC retention time of 1000 s.
`CCC(C)(C)C(=O)N1CC(c2nc(-c3ccccc3)no2)C2(CCOCC2)C1` (stereo not given) showed an RP-LC retention time of 553 s.
With `Cc1cc(Cl)ccc1S(=O)(=O)N1CCn2c(nn(CC3CC3)c2=O)C1` the RP-LC retention time was 872 s.
`CCn1cnc(S(=O)(=O)N2CCCC(C(=O)NC3CCCCCCC3)C2)c1` (stereo not given) gave an RP-LC retention time of 788 s.
`CCC1Oc2ccc(S(=O)(=O)N3CCC(C(=O)Nc4ccc(C)c(F)c4)CC3)cc2NC1=O` (stereo not given) showed an RP-LC retention time of 892 s.
Compound `Brc1cn2c(Nc3ccc4c(c3)OCO4)c(-c3ccccc3)nc2cn1` has an RP-LC retention time of 940 s.
`CC(C)c1noc(-c2cccnc2N2CCCN(Cc3ccc(F)cc3Cl)CC2)n1` gave an RP-LC retention time of 754 s.
`O=C(Nc1cnc(-c2ccccc2)nc1)c1ccc(F)c(F)c1` showed an RP-LC retention time of 1030 s.
Compound `COc1ccc(-c2nc(-c3cn(Cc4ccc(F)cc4)nn3)no2)cc1` has an RP-LC retention time of 963 s.
In the case of `O=S(=O)(c1cc(-c2nnc(-c3ccccc3)o2)ccc1F)N1CCOCC1`, the RP-LC retention time was 888 s.
In the case of `Cc1ccc(NC(=O)c2cccn2Cc2noc(C)n2)cc1`, the RP-LC retention time was 856 s.
`COc1ccc(N2CC(C(=O)NCC(=O)N3CCCc4ccccc43)CC2=O)cc1` (stereo not given) gave an RP-LC retention time of 724 s.
Work on `Cc1oc(-c2ccc(NC(=O)Cc3ccc(Cl)cc3)cc2)nc1Cn1cccn1` yielded an RP-LC retention time of 941 s.
Work on `CCn1c(=O)n(CC(=O)NCCN2CCCCC2C)c(=O)c2cnc(-c3ccc(Cl)cc3)nc21` (stereo not given) yielded an RP-LC retention time of 751 s.
`Cn1nnc2ccc(-c3noc(-c4cccc(F)c4)n3)cc21` showed an RP-LC retention time of 1010 s.
For `O=C(c1ccc2c(c1)CCC(=O)N2Cc1ccccc1)N1CCN(c2ccccc2F)CC1`, the RP-LC retention time was 967 s.
For `O=C(C1=CN(c2ccc3c(c2)OCCO3)c2cc(Cl)ccc2S1(=O)=O)N1CCCC1`, the RP-LC retention time was 838 s.
Work on `CCc1ccc(CNC(=O)Cn2cc(-c3nnco3)c3ccccc32)cc1` yielded an RP-LC retention time of 866 s.
Compound `N#Cc1cc2c(nc1SCC(=O)Nc1nccs1)CCCCC2` has an RP-LC retention time of 871 s.
`CCOc1nc2ccccc2nc1N1CCCC(C(=O)Nc2ccc(Br)cc2)C1` (stereo not given) showed an RP-LC retention time of 1340 s.
For `CCn1cnc(S(=O)(=O)N2CCC(C(=O)Nc3ccccc3OC)CC2)c1`, the RP-LC retention time was 666 s.
For `O=C(CN1C(=O)CCC1=O)NCC1(c2ccc(F)cc2)CC1`, the RP-LC retention time was 665 s.
For `Fc1ccccc1-c1nc2ccn(Cc3ccc(-c4ccc(C(F)(F)F)cc4C(F)(F)F)nn3)cc-2n1`, the RP-LC retention time was 849 s.
In the case of `O=C(Cn1nc(C(=O)N2CCOCC2)cc1C1CC1)NCCCN1CCCC1=O`, the RP-LC retention time was 566 s.
With `O=C(NC1CCN(Cc2ccccc2)CC1)C1CCCN(c2ncc(-c3cccc(F)c3)cn2)C1` (stereo not given) the RP-LC retention time was 753 s.
`OC1(c2ccccn2)CCOC2(CCN(Cc3c(F)cccc3Cl)CC2)C1` (stereo not given) showed an RP-LC retention time of 560 s.
`CN1C(=O)c2cc(C(=O)Nc3ccccc3Br)nn2CC1(C)C(=O)NC1CCCCC1` (stereo not given) showed an RP-LC retention time of 807 s.
`CC1(C(=O)NC2CCCCCCC2)CN(S(C)(=O)=O)CC(=O)N1Cc1ccc(F)cc1` (stereo not given) gave an RP-LC retention time of 740 s.
`Cc1ccccc1Nc1c(-c2cccc(Cl)c2)nc2ccccn12` gave an RP-LC retention time of 787 s.
`COc1ccc(NC(=O)C2CC(=O)N(c3ccc4c(c3)CCN4C(C)=O)C2)c(OC)c1` (stereo not given) showed an RP-LC retention time of 675 s.
For `COCCN(Cc1ccncc1)C(=O)c1ccc2nsnc2c1`, the RP-LC retention time was 544 s.
In the case of `Cc1noc(C)c1S(=O)(=O)N1CCC(Cn2c(C)cnc2-c2ccccc2)C1` (stereo not given), the RP-LC retention time was 658 s.
Compound `O=C(c1ccc2c(c1)OCO2)N1CCC(c2ccncc2)CC1` has an RP-LC retention time of 584 s.
For `O=C(Nc1ccc(Cl)cc1)C1CCc2nc(N3CCOCC3)ncc2C1` (stereo not given), the RP-LC retention time was 757 s.
`O=C(Nc1ccc(-n2cnc(C(=O)N3CCCCCC3)c2)nc1)C1CC1` gave an RP-LC retention time of 698 s.
For `O=C(NCc1cc(F)cc(F)c1)C1CCN(C(=O)c2ncn3c2COC(c2ccc(F)cc2)C3)CC1` (stereo not given), the RP-LC retention time was 802 s.
With `COc1cc2nc(N3CCC(N4CCCCC4)CC3)nc(NC3CCCCCC3)c2cc1OC` the RP-LC retention time was 662 s.
In the case of `COCCNC(=O)c1sc2ncn(CC(=O)N3CCCCC3C)c(=O)c2c1C` (stereo not given), the RP-LC retention time was 679 s.
Work on `CCSc1nc2ccc(NS(=O)(=O)c3ccc(F)cc3F)cc2s1` yielded an RP-LC retention time of 1020 s.
In the case of `CCOC(=O)/C(=N\O)C1=CSC2=NNC(C)(C)N12`, the RP-LC retention time was 907 s.
In the case of `Cc1ccc2oc(C(=O)Nc3nccs3)c(C)c2c1`, the RP-LC retention time was 942 s.
With `O=C(C1CCN(S(=O)(=O)c2cc(-c3noc(C4CC4)n3)cs2)CC1)N1CCCCC1` the RP-LC retention time was 931 s.
Work on `CSc1ccc(CNC(=O)C2CCCN(c3nccn4nc(-c5ccc(F)cc5)cc34)C2)cc1` (stereo not given) yielded an RP-LC retention time of 951 s.
`O=c1c2c(CO)c(-c3ccccc3)nn2ccn1Cc1ccccc1F` gave an RP-LC retention time of 902 s.
With `O=C(Cc1cccs1)NCc1cccnc1Oc1ccccc1` the RP-LC retention time was 853 s.
Work on `O=C(CSc1cc(NCc2ccc(Cl)cc2)ncn1)Nc1ccc(F)cc1F` yielded an RP-LC retention time of 988 s.
Work on `COc1cccc(S(=O)(=O)N2CCC(Cc3nncn3C)CC2)c1` yielded an RP-LC retention time of 641 s.
Work on `Cc1ncc2c(n1)C[C@@H]1CC[C@H]2N1S(=O)(=O)c1ccc2c(c1)C(C)(C)C(=O)N2` yielded an RP-LC retention time of 636 s.
`O=C(NCc1ccc2c(c1)OCO2)c1cn(-c2cc(N3CCCC3)ncn2)cn1` showed an RP-LC retention time of 775 s.
With `CCOc1ccc(C2Cn3nnc(-c4nc(-c5cccc(Cl)c5)no4)c3CO2)cc1` (stereo not given) the RP-LC retention time was 1320 s.
`CC(C)n1c(=O)c(NCc2ccc(N3CCOCC3)cc2)nc2ccncc21` gave an RP-LC retention time of 606 s.
For `Cc1nnsc1C(=O)Nc1nnc(-c2ccnn2C)o1`, the RP-LC retention time was 665 s.
For `O=C(O)CC1CCCN(c2cnn(CC3CC3)c(=O)c2)C1` (stereo not given), the RP-LC retention time was 657 s.
For `CCc1nc(-c2csc(S(=O)(=O)N3CCC(C(=O)Nc4ccc(C)cc4)CC3)c2)no1`, the RP-LC retention time was 1020 s.
Compound `COc1ccc(OC)c(NC(=O)NC(C(=O)N2CCc3ccccc32)C(C)C)c1` (stereo not given) has an RP-LC retention time of 984 s.
`CN1CCN(C(=O)C2CCN(S(=O)(=O)c3cc(C(=O)N4CCCCCC4)cs3)CC2)CC1` showed an RP-LC retention time of 619 s.
Work on `CCCN1CCN(CCCNC(=O)C(C)n2c(=O)c(C(F)(F)F)nc3ccccc32)CC1` (stereo not given) yielded an RP-LC retention time of 622 s.
For `Cc1sc(-c2nnc(C(C)C)o2)cc1NC(=O)C1CCC1`, the RP-LC retention time was 892 s.
Compound `Cc1ccc2nc(C(=O)NCCN(C)C3CCCCC3)cn2c1` has an RP-LC retention time of 564 s.
In the case of `Cc1nnc2ccc(S(=O)(=O)N(Cc3ccccc3)c3ccc(Cl)cc3)cn12`, the RP-LC retention time was 930 s.
`O=C(NCCCN1CCOCC1)c1csc(N2CCN(c3ccccc3)CC2)n1` showed an RP-LC retention time of 654 s.
`Cc1ccc(N2CC(c3noc(-c4cccc(N(C)C)c4)n3)CC2=O)cc1` (stereo not given) gave an RP-LC retention time of 1090 s.
In the case of `CC1CCN(C(=O)C2CCN(S(=O)(=O)c3ccc4c(c3)sc(=O)n4C(C)C)CC2)CC1`, the RP-LC retention time was 969 s.
In the case of `CCNC(=O)NCCC1CCN(S(=O)(=O)c2ccc(C)cc2)CC1`, the RP-LC retention time was 748 s.
With `CCS(=O)(=O)N1CCCc2cc(C(=O)NCCOC)ccc21` the RP-LC retention time was 682 s.
`Cc1nnc(-c2cn(CC(=O)Nc3cccc(Br)c3)c3ccccc23)o1` showed an RP-LC retention time of 893 s.
In the case of `O=C(NCCc1ccccc1)C(=O)c1ccc[nH]1`, the RP-LC retention time was 824 s.
`NC(=O)C1CCN(c2ncnc(N)c2[N+](=O)[O-])CC1` gave an RP-LC retention time of 512 s.
For `CCOc1ccc(S(=O)(=O)N2CCC(C(=O)NCCC3=CCCCC3)CC2)cc1`, the RP-LC retention time was 953 s.
For `CC(C)NC(=O)c1ccc(Cn2cncn2)cc1`, the RP-LC retention time was 597 s.
In the case of `CCn1c(=O)c2ccccc2n(Cc2nc(-c3ccc(Cl)c(F)c3)no2)c1=O`, the RP-LC retention time was 1140 s.
`O=S(=O)(c1ccc(F)c(F)c1)N1CCc2nc(-c3ccccc3)ncc2C1` showed an RP-LC retention time of 1090 s.
With `COc1ccccc1C(=O)Nc1cccn2ncnc12` the RP-LC retention time was 803 s.
For `CCn1c(C)c(CN2CCC(C(=O)NCc3ccccc3C)CC2)c2ccccc21`, the RP-LC retention time was 742 s.
In the case of `O=C(NC1CC1)c1cnn2c(-c3ccccn3)ccnc12`, the RP-LC retention time was 687 s.
`Cc1ccc2c(c1)C(=O)NC1(CCN(C(=O)c3cc(F)cc(F)c3)CC1)N2C` showed an RP-LC retention time of 752 s.
`Cc1cnc(-c2ccccc2)n1C1CN(Cc2cccc(C#N)c2)C1` showed an RP-LC retention time of 559 s.
For `Cc1ccc(NC(=O)N2CCC(N3CCN(Cc4ccccc4)C3=O)CC2)cc1`, the RP-LC retention time was 822 s.
Work on `O=S(=O)(NCc1cccs1)c1cc(-c2nnc(-c3ccccc3)o2)ccc1F` yielded an RP-LC retention time of 1070 s.
`COc1cccc(CNC(=O)C2CCCN(c3cc(=O)n(C)c(=O)n3C)C2)c1` (stereo not given) showed an RP-LC retention time of 670 s.
Compound `CCc1nc(-c2csc(S(=O)(=O)N3CCC(C(=O)Nc4ccc(F)cc4Cl)CC3)c2)no1` has an RP-LC retention time of 1040 s.
